Experimental data taken from patent publication US8841125B2, “Cancer tissue-derived cell mass and a process for preparing same” (Renaissance Energy Investment Co., Ltd., priority 2009, dated 2014).

Test system: cell mass derived from the cancer tissue (surgical specimens of human colon cancer, Example 2)
Experiment: Drug sensitivity test with cell masses embedded in collagen gel
Format: cell-based
Details: 5-FU at 0.01, 0.1, 1, 10 and 100 μg/ml; day 8 vs day 0 of culture; FIG. 4
Procedure: Using 5-FU which is known to inhibit DNA synthesis by binding to a thymidylic acid synthetase involved in the metabolism process necessary for DNA synthesis, a drug sensitivity test on a sample of Example 2 was carried out. The test was carried out by embedding the cell masses (×10 each) derived from the cancer tissue in a collagen gel (CellMatrix type IA (Nitta Gelatin Inc.):5×DMEM (Gibco; 12100-038):buffer solution for gel reconstruction (50 mM NaOH, 260 mM NaHCO3, 200 mM HEPES)=7:2:1), and culturing in 1 cc of STEMPRO serum-free medium (Gibco) for human ES cells in an incubator under the culture conditions of 37° C. and 5% CO2. In addition, 5-FU was applied at a concentration of 0.01 μg/ml, 0.1 μg/ml, 1 μg/ml, 10 μg/ml, and 100 μg/ml, and the states of the cells on days 0 and 8 after culture were compared for evaluation. An increasing rate of the area of the cell mass derived from the cancer tissue was expressed relative to 1 of an increasing rate of the area of the cell mass in the culture without application of a drug.

SMILES: O=c1[nH]cc(F)c(=O)[nH]1 [5-FU]
- proliferation of the cancer cell (increasing rate of the area of the cell mass relative to 1 for culture without drug): concentration-dependently suppressed
